Positions of bridges follow the written chain, without caps; N, C: chain ends. Residues, ends and D or L forms follow the SMILES beside them.
System: T1, Melanoma-associated antigen 4 (Homo sapiens), P43358 [M229A]
T1 sequence (whole entry): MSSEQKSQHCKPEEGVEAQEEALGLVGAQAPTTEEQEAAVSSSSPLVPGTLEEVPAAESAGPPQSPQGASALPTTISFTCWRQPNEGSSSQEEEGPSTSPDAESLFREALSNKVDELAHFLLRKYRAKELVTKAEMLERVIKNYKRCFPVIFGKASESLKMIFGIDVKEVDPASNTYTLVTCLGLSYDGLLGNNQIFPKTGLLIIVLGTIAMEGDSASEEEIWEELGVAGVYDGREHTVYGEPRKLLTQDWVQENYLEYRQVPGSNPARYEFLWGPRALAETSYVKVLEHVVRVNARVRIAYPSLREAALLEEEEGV
Test: Binding affinity to recombinant N-terminal His-tagged MAGEA4-MH domain M229A mutant (unknown origin) expressed in Escherichia coli BL21-(DE3) assessed as increase in thermal stability by SYPRO orange dye based differential scanning fluorimetry
Conditions: dose <= 10.0 µM

Tm: < 3.5 °C
Structure (SMILES): CC[C@H](C)[C@@H]1NC(=O)[C@H](Cc2ccc(O)cc2)NC(=O)CSC[C@@H](C(N)=O)NC(=O)[C@H](CC(N)=O)NC(=O)[C@H](Cc2cnc[nH]2)NC(=O)[C@H](Cc2ccc(O)cc2)NC(=O)[C@H](CC(=O)O)NC(=O)[C@H](Cc2ccc(O)cc2)NC(=O)[C@H](CC(C)C)NC(=O)[C@H](CCCNC(=N)N)NC1=O ({CH2CO}-YIRLYDYHNC-NH2; thioether N-10)
